Data published in PMC6351562, “Structure, function, and inhibition of drug reactivating human gut microbial β-glucuronidases” (Scientific Reports, 2019).
Values joined by “and” are separate entries in the source; they are usually repeats but may differ in a detail not shown here. Equal values may be shown once.

What was measured:
Type in all cases: biochemical
[1] = target: T1, Ruminococcus gnavus GUS (RgGUS) (Mediterraneibacter gnavus, UniProt A0A2N5PVZ8); experiment: In vitro DCF-G processing assay (UPLC); conditions: DCF-G as substrate, 400 µM; pH 6.5; 37 °C
T1 sequence (A0A2N5PVZ8 1-603): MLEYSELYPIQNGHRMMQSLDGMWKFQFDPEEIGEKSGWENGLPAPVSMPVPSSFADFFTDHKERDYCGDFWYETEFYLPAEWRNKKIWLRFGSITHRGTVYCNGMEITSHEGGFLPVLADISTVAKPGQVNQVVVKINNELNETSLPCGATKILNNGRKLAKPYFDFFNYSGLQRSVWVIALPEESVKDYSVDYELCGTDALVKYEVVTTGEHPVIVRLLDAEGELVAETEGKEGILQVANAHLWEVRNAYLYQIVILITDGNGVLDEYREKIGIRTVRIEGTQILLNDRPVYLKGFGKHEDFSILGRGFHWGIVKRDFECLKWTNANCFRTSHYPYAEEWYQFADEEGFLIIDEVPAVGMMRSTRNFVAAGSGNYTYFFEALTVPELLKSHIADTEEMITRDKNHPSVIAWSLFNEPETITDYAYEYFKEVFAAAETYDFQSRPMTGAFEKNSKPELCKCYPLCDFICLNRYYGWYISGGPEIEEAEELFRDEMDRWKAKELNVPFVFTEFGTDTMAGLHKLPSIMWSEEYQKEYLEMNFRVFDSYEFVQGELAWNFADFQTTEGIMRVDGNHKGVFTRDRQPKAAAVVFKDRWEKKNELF

[2] = target: Clostridium perfringens GUS (CpGUS) (Clostridium perfringens, UniProt Q8VNV4); conditions: pH 6.5; 37 °C
[3] = target: T2, Faecalibacterium prausnitzii GUS (FpGUS) (Faecalibacterium duncaniae, UniProt C7H4D2); experiment: In vitro DCF-G processing assay (UPLC); conditions: DCF-G as substrate, 400 µM; pH 6.0; 37 °C
T2 sequence (C7H4D2 1-608): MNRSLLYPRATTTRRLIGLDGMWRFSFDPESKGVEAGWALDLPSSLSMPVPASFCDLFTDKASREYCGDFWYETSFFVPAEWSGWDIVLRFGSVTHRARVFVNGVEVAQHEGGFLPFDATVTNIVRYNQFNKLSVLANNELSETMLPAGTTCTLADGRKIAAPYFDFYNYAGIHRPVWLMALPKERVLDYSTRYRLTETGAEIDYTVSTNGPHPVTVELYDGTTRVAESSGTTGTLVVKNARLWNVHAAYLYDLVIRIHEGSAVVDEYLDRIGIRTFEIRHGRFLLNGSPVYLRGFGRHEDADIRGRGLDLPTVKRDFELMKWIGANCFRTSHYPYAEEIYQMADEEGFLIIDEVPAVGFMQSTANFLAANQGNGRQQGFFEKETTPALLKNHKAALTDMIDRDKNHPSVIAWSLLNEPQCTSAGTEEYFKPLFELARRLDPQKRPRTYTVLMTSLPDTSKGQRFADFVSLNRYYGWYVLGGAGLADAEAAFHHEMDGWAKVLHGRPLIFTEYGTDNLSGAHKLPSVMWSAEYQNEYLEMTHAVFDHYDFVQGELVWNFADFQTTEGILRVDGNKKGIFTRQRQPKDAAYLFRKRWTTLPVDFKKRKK

[4] = target: T3, Bacteroides uniformis GUS (BuGUS) (Bacteroides uniformis, UniProt A0A078SUX9); experiment: In vitro DCF-G processing assay (UPLC); conditions: DCF-G as substrate, 400 µM; pH 5.5; 37 °C
T3 sequence (A0A078SUX9 32-886): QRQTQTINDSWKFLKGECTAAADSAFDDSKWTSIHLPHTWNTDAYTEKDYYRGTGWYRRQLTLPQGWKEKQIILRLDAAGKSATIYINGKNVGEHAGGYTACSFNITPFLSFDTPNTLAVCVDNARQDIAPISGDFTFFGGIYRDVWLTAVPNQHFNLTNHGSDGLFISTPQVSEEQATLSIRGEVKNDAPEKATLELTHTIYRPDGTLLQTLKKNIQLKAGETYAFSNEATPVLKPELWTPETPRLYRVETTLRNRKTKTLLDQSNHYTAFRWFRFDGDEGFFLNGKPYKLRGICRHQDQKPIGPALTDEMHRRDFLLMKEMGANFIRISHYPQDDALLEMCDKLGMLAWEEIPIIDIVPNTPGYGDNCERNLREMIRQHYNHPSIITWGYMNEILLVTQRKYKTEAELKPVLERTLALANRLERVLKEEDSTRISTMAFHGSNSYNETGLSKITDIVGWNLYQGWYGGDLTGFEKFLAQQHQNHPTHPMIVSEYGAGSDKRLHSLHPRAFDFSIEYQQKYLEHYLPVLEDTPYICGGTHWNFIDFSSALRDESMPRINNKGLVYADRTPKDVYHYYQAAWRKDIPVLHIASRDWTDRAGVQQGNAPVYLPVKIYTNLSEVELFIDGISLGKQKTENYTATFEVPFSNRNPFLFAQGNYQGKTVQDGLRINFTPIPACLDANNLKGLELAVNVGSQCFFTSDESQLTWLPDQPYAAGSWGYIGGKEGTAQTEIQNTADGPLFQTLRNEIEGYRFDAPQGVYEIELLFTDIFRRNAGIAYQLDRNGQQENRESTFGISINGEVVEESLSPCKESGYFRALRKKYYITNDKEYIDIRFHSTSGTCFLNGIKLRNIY

[5] = target: T4, Lactobacillus rhamnosus GUS (LrGUS) (Lacticaseibacillus rhamnosus, UniProt A0A2A5L2J1); experiment: In vitro DCF-G processing assay (UPLC); conditions: DCF-G as substrate, 400 µM; pH 4.5; 37 °C
T4 sequence (A0A2A5L2J1 1-603): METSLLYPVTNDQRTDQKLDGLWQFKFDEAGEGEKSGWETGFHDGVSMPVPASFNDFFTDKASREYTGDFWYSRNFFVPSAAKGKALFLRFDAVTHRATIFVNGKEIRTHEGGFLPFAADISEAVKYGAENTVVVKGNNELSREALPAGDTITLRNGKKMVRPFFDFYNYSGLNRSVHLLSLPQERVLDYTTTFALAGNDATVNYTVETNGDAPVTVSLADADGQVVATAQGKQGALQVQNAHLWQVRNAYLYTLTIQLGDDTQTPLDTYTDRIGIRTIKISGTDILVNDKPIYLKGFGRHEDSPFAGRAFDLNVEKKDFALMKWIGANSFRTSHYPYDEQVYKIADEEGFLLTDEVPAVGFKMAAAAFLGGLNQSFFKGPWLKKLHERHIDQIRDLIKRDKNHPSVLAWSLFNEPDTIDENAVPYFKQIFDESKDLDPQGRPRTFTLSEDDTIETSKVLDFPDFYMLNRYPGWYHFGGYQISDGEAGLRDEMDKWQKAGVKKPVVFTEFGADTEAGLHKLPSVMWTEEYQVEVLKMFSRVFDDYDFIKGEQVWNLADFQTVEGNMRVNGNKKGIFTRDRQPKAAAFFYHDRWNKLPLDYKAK

O=C(Cc1ccccc1Nc1c(Cl)cccc1Cl)O[C@@H]1O[C@H](C(=O)O)[C@@H](O)[C@H](O)[C@H]1O [DCF-G, Diclofenac acyl β-D-glucuronide]
Apparent kcat [1]: 24.0 s⁻¹ and 24.0 ± 0.5 s⁻¹ | Apparent kcat [2]: 61.5 ± 0.6 s⁻¹ | Apparent kcat [3]: 32 ± 3 s⁻¹ | Apparent kcat [4]: 10 ± 1 s⁻¹ | Apparent kcat [5]: 10 s⁻¹ and 10 ± 1 s⁻¹
